From US20130244255A1, “ANTIBODIES DIRECTED TO GPNMB AND USES THEREOF” (priority 2006, published 2013)
“Also recorded” adds a separate entry of the source. Counter-ions that a name gives are not always drawn. Where a SMILES comes first, the peptide text is derived from it. [ ]: non-standard residue; d: D form. The star is where a group is joined. Dolaproine = CO[C@@H]([C@@H]1CCCN1)[C@@H](C)C(=O)O; Dil = CC[C@H](C)[C@H](NC)[C@@H](CC(=O)O)OC; X1 = C[C@@H](N*)[C@@H](O)c1ccccc1; NMeV = CN[C@H](C(=O)O)C(C)C

Key:
[1] = test system: SK-Mel-2 cells; experiment: ADCC assay with human PBMC (DELFIA EuTDA cytotoxicity); format: cell-based; conditions: 30 to 100 fold PBMC; 2, 5, 10 μg/200 μl mAb
Description: Human PBMC were isolated from whole blood using a Ficoll-Plaque. Briefly, in a 50 mL tube, 15 mL of PBS was added to 20 mL of whole blood which was underlayed with 10 mL Ficoll-Plaque and the tube was centrifuged at 2000 RPM. Mononuclear cells were collected from the interface and washed 3 times with PBS. The ADCC assay was carried out in a 96 well plate using a fluorescence assay for cytolysis from Perkin-Elmer (DELFIAEuTDA Cytotoxic assay). The procedure is based on loading target cells with a fluorescence enhancing ligand (BATDA, bis (acetoxymethyl) terpyridine—dicarboxylate). The hydrophic ligand penetrates the membrane quickly. Within the cell the esterbonds are hydrolyzed to form a hydrophilic ligand (TDA, terpyridine—dicarboxylic acid) which can no longer pass through the membrane. After cytolysis the ligand is released and introduced to the Europium solution. The europium and the ligand form a highly fluorescent and stable chelate (EuTDA). Fluorescence intensity are recorded using excitation and emission wavelengths as λex=340 nm and λem=613 nm, respectively.

[2] = biological target: T1, CG56972/GPNMB (Homo sapiens, UniProt Q14956); experiment: FACS binding of CR011 IgG1 and IgG2 on SK-MEL-2 cells
T1 construct: endogenous in cells; host or cells: UACC-62 and a panel of melanoma lines (A5); SK-MEL-2 (A52); SK-Mel-5 (A63)
T1 sequence (Q14956 23-572): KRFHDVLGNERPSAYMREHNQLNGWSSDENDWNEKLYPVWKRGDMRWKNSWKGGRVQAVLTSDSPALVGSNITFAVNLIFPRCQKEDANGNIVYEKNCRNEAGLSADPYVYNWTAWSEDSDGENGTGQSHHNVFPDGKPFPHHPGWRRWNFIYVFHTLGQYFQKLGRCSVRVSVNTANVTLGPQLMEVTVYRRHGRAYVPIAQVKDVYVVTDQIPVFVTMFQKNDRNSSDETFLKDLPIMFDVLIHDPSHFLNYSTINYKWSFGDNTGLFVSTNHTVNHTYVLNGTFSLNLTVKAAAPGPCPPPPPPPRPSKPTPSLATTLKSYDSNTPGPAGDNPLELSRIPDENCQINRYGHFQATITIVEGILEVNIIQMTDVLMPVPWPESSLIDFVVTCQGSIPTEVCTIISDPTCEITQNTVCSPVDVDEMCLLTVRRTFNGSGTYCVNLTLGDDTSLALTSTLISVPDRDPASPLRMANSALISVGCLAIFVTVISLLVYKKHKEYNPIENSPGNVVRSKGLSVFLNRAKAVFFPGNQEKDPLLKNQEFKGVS

[3] = test system: UACC-62; experiment: Anti-GPNMB antibody mediated indirect cell killing (saporin secondary conjugate, colony count); format: cell-based, human; conditions: 5-FU 600 uM; antibodies with saporin toxin-conjugated secondary antibody
Description: UACC-62, a GPNMB antigen expressing cell line, and TK10, a non-expressing cell line were plated onto flat bottom 96-well tissue culture plates (Becton Dickinson, Franklin Lakes, N.J., USA) at a density of 3000 cells per well. Once the cells reached ˜25% confluency, 100 ng/well of secondary antibody-toxin conjugate (goat anti-human IgG-saporin; Advanced Targeting Systems, San Diego, USA, HUM-ZAP; cat #IT-22) was added. Anti-GPNMB MAbs 2.10.2, 2.22.1, 1.15.1 or isotype control mAb (pK16.3) were added to each well at a final concentration of 10 or 50 μg/mL. An anti-EGFR monoclonal antibody (MS-269-PABX, NeoMarkers, Fremont, Calif., USA) was used as a positive primary antibody control. Chemotherapy reagent 5-FU at 600 uM was used as a positive reagent control. On day 5, the cells were trypsinized, transferred to 6-well tissue culture plates and incubated at 37° C. Plates were examined daily and between 8-10 days, all plates were Giemsa stained and colonies were counted.

[4] = test system: SK-MEL-2 human melanoma xenograft; experiment: SK-MEL-2 human melanoma xenograft in athymic mice; format: in vivo
Description: Five- to 6-week old athymic mice (CD-1 nu/nu females), used for human tumor xenografts, were obtained from Harlan Laboratories (Indianapolis, Ind.). Animals were housed in specific pathogen-free conditions, according to the guidelines of the Association for Assessment and Accreditation of Laboratory Animal Care International (AAALAC International). Test animals were provided pelleted food and water ad libitum and kept in a room with conditioned ventilation (HVAC), temperature (22°±2° C.), relative humidity (55%±15%), and photoperiod (12 hr). All studies were carried out with approved institutional animal care and use protocols.
(§1) The tumor inhibitory activity of the CR011-MMAE immunoconjugate was measured in an anti-tumor xenograft model using athymic mice, according to published methods (see Geran et al., Cancer Chemother. Rep. 3:1-104 (1972)). […] When tumors became established (10-20 days), the animals were pair-matched into groups (n=6 mice/group), and treatment was administered by intravenous injection (tail vein).
(§2) The SK-MEL-2 human melanoma (ATCC #HTB-68) was derived from a metastatic site (skin of thigh) of a person with malignant melanoma, and the SK− MEL-5 human melanoma (ATCC #HTB-70) was derived from a metastatic site (axillary lymph node) of a person with malignant melanoma (see Fogh et al., J. Natl. Cancer Inst. 59: 221-226 (1977)). Both cell lines were obtained from the American Type Culture Collection.
(§3) The effects of treatment were monitored by repetitive tumor measurements across 2 diameters with Vernier calipers; tumor size (in mg) was calculated using a standard formula, (W^2×L)/2, assuming a specific gravity of 1.0. Tumor size and body weights were assessed twice weekly. Mice were examined daily, however, and moribund animals were humanely euthanized if clinical indications of excessive pain or distress were noted (i.e., prostration, hunched posture, paralysis/paresis, distended abdomen, ulcerations, abscesses, seizures, and/or hemorrhages) Animals with tumors exceeding 2,000 mg were removed from the study and euthanized humanely.
No apparent or statistically significant anti-tumor effects were observed. […] In preliminary studies, tumor regression was complete and was not followed by regrowth of the tumor despite lengthy observation periods (up to 200 days).

[5] = test system: SK-MEL-5 human melanoma xenograft; experiment: SK-MEL-5 human melanoma xenograft in athymic mice; format: in vivo
Description: as §1, §2, §3
Soon after the commencement of treatment with paclitaxel, however, significant tumor growth inhibition was observed (P≦0.039) at day 3 after treatment began, and this anti-tumor effect continued, producing 100% growth inhibition (stasis). The responses of SK-MEL-5-bearing test animals to vinblastine and paclitaxel were short-lived. After cessation of treatment at the maximally tolerated doses, tumors resumed rapid, progressive growth.

For “CR011 IgG1 mAb: CR011 mAb 1.15.1 switched to IgG1 constant region; heavy chain SEQ ID NO: 395”, the “cytolysis of SK-MEL-2 cells (ADCC)” value [1] was “caused cytolysis of SK-MEL-2 cells in a dose dependent manner” and the “FACS shift on SK-MEL-2 cells vs isotype control mAbs” value [2] was “comparable FACS shifts”.

With `O=c1[nH]cc(F)c(=O)[nH]1` [Mab 5-FU] the “effect on UACC-62 cells (in words)” value [3] was “complete killing”.

In the case of `CC[C@]1(O)C[C@@H]2CN(CCc3c([nH]c4ccccc34)[C@@](C(=O)OC)(c3cc4c(cc3OC)N(C)[C@H]3[C@@](O)(C(=O)OC)[C@H](OC(C)=O)[C@]5(CC)C=CCN6CC[C@]43[C@@H]65)C2)C1` [Vinblastine, vinblastine sulfate, reference compound], the “anti-tumor effect (in words)” value ([4]; i.v., CR011-vcMMAE 20, 10, 5 or 2.5 mg/kg q4d×4, vinblastine […] q4d×4) is reported as “very slight, but not significant, anti-tumor effect” and the “anti-tumor effect (in words)” value ([5]; i.v., CR011-vcMMAE 1.25 to 20 mg/kg q4d×4, vinblastine […] q4d×4) is reported as “noticeable, but not significant tumor growth inhibition”.

For `CC[C@H](C)[C@@H]([C@@H](CC(=O)N1CCC[C@H]1[C@H](OC)[C@@H](C)C(=O)N[C@H](C)[C@@H](O)c1ccccc1)OC)N(C)C(=O)[C@@H](NC(=O)[C@@H](NC)C(C)C)C(C)C` [monomethylauristatin E, reference compound] (H-[NMeV]V[Dil][Dolaproine]-X1), the “tumor growth inhibition by components of the immunoconjugate (in words)” value ([4]; doses identical to that contained in the intact immunoconjugate (5 mg/kg q4d×4)) was “lack of responses; also recorded: lack of tumor growth inhibition”.

With `CC(=O)O[C@H]1C(=O)[C@@]2(C)[C@H]([C@H](OC(=O)c3ccccc3)[C@]3(O)C[C@H](OC(=O)[C@H](O)[C@@H](NC(=O)c4ccccc4)c4ccccc4)C(C)=C1C3(C)C)[C@]1(OC(C)=O)CO[C@@H]1C[C@@H]2O` [Paclitaxel, paclitaxel, reference compound] the “growth inhibition (tumor stasis)” value ([4]; paclitaxel i.v. 24 mg/kg q2d×4, for approximately 2 weeks after treatment commenced) was 100%, the “growth inhibition (stasis)” value ([5]; paclitaxel 24 mg/kg i.v. q2d×4) was 100% and the “long-term, tumor-free survivor” value ([5]; paclitaxel group) was “One”.
